Test results from PMC10951340, “Two DOT1 enzymes cooperatively mediate efficient ubiquitin-independent histone H3 lysine 76 tri-methylation in kinetoplastids” (Nature Communications, 2024).

What was measured:
full-length DOT1A = biological target: T1, full-length DOT1A (Trypanosoma brucei, UniProt Q581Z0); test: 3H-methyl incorporation into nucleosome; quantitative MS of H3K76; type: biochemical; conditions: co-substrate T. brucei nucleosome, pH 8.5, 25 °C; labelled compound
T1 construct: full length (295 residues), Sf9 cells, His6-tag cut with PreScission
T1 sequence (Q581Z0 1-295): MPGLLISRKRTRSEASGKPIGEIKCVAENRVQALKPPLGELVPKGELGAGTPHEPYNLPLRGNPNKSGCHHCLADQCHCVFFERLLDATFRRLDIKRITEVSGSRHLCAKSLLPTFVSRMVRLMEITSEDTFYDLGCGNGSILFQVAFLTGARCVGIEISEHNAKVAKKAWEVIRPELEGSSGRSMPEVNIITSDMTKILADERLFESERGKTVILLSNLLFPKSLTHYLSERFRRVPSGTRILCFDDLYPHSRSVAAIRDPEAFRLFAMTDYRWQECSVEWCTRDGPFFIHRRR

Δ42-DOT1A [1] = biological target: T2, Δ42-DOT1A (Trypanosoma brucei, UniProt Q581Z0); conditions: pH 8.5, on ice, 254 nm 1 h; covalent photo-cross-link; labelled compound
Δ27-DOT1B = Δ27-DOT1B (Trypanosoma brucei, UniProt Q4GZF2); conditions: co-substrate T. brucei nucleosome, pH 8.5, 25 °C; labelled compound
Sequence of Δ27-DOT1B (Q4GZF2 entry or part of it, stated change not applied): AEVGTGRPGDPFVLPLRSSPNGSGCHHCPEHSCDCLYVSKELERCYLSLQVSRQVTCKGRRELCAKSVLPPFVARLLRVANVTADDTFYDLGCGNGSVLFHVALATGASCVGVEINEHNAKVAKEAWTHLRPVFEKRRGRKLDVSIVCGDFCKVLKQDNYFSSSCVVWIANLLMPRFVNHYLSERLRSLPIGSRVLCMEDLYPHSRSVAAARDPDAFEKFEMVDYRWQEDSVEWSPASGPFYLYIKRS

Δ42-DOT1A [2] = biological target: T2, Δ42-DOT1A; test: X-ray crystal structure of the complex ([…] and […] Å); type: binding; set-up: residues 43-295, E. coli, His6-tag cut with PreScission; conditions: active site; co-crystallised with twofold molar excess
DOT1A full-length = biological target: T3, DOT1A full-length (Trypanosoma brucei strain Lister 427, UniProt Q581Z0 1-295); test: fluorescence polarization; n = 1; FP: 5 nM probe, 100 mM NaCl, 20 mM Tris-HCl pH 7.5, 5% glycerol, 0.5 mM TCEP, 25 °C, 10 min; footprinting at ambient temperature; conditions: protein: recombinant; tags: His6 cleaved (PreScission); label: 5'-FAM on strand 1; 5' overhang 2 nt (CC) on strand 2
T3 sequence: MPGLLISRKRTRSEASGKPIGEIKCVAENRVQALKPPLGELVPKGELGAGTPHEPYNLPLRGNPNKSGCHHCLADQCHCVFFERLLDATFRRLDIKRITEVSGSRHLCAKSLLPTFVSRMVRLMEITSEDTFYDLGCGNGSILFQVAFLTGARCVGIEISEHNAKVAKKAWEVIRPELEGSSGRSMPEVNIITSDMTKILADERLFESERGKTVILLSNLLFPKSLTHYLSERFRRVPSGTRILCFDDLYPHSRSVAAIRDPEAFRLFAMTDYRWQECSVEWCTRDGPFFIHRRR

DOT1L (1-420) = DOT1L (1-420) (human, UniProt Q8TEK3 1-420); test: fluorescence polarization; n = 2; FP: 5 nM probe, 100 mM NaCl, 20 mM Tris-HCl pH 7.5, 5% glycerol, 0.5 mM TCEP, 25 °C, 10 min; footprinting at ambient temperature; conditions: protein: recombinant; tags: His6 cleaved (PreScission); label: 5'-FAM on strand 1; 5' overhang 2 nt (CC) on strand 2
Sequence of DOT1L (1-420) (Q8TEK3 1-420): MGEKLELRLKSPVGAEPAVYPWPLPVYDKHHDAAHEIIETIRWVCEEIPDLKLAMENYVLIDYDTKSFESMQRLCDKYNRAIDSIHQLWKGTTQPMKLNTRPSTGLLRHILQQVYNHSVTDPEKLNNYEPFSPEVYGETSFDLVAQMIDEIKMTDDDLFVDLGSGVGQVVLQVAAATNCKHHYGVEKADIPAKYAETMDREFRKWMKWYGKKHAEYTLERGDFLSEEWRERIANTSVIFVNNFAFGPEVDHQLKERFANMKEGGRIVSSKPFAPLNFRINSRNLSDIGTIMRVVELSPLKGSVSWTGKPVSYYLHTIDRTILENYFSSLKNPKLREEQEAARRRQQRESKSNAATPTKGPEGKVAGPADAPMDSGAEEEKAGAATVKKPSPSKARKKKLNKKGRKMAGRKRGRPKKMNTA

Δ42-DOT1A [3] = biological target: T4, Δ42-DOT1A (Trypanosoma brucei strain Lister 427, UniProt Q581Z0 43-295); test: fluorescence polarization; not detectable; n = 1; FP: 5 nM probe, 100 mM NaCl, 20 mM Tris-HCl pH 7.5, 5% glycerol, 0.5 mM TCEP, 25 °C, 10 min; footprinting at ambient temperature; conditions: protein: recombinant; tags: His6 cleaved (PreScission); label: 5'-FAM on strand 1; 5' overhang 2 nt (CC) on strand 2
T4 sequence: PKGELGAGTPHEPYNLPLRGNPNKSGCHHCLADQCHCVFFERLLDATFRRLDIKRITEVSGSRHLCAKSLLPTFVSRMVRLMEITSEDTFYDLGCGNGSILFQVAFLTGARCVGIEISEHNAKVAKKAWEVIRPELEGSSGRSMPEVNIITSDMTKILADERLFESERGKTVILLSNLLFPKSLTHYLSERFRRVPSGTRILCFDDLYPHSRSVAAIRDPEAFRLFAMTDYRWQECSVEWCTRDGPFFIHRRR

C[S+](CC[C@H](N)C(=O)O)C[C@H]1O[C@@H](n2cnc3c(N)ncnc32)[C@H](O)[C@@H]1O (stereo partly shown) [AdoMet]
3H-methyl incorporation into nucleosome; quantitative MS of H3K76 (full-length DOT1A): Methyltransferase activity of full-length DOT1A, Δ42-DOT1A, and Δ27-DOT1B toward the recombinant T. brucei nucleosome | UV cross-linking of [methyl-3H]AdoMet, SDS-PAGE fluorography (Δ42-DOT1A [1]): AdoMet binding analyzed by cross-linking experiments showing Coomassie stain (middle) and fluorography (bottom) | 3H-methyl incorporation into nucleosome; quantitative MS of H3K76 (Δ27-DOT1B): Δ27-DOT1B showed significant methyltransferase activity by measuring tritium incorporation from [methyl-^3H] AdoMet in vitro

Nc1ncnc2c1ncn2[C@@H]1O[C@H](CSCC[C@H](N)C(=O)O)[C@@H](O)[C@H]1O [AdoHcy]
X-ray crystal structure of the complex (2.1 and 1.9 Å) (Δ42-DOT1A [2]): Δ42-DOT1A crystallized in complex with the methyl donor product AdoHcy in two different crystal forms

B1: FAM-dsDNA probe (dsDNA)
DNA 1: CTACAGTTCGTCAGGATTCC
DNA 2: CCGGAATCCTGACGAACTGTAG
Kd (DOT1A full-length): 900 ± 200 nM | Kd (DOT1L (1-420)): 110 ± 20 nM | binding result (Δ42-DOT1A [3]): no binding
